The text below walks through data of ChEMBL document CHEMBL5360601, “Discovery of Potent, Dual-Inhibitors of Diacylglycerol Kinases Alpha and Zeta Guided by Phenotypic Optimization” (ACS Med Chem Lett, 2023).

Molecules are shown by their SMILES. Where only a bound is given, the exact number is not on record here.

Series [1] is described as follows: Metabolic stability in human liver microsomes assessed as parent compound remaining. The series is classed as ADME, Microsome. For orientation: Liver microsomes are a subcellular fraction often used to study metabolism.
The subject of series [2] is Raji. The series is described as follows: IL2 production in PD-L1 positive human Raji cells measured after 24 hrs by Cell titer glo assay. A general note: Cellular ATP, detected with luciferase, serves as a proxy for viable cell number.
Series [3] can be described thus: Metabolic stability in mouse liver microsomes assessed as parent compound remaining. The series is classed as ADME, Microsome.
In series [4] the test system is Raji. The series is described as follows: IL2 production in PD-L1 negative human Raji cells measured after 24 hrs by Cell titer glo assay.
Series [5] has as its target T1, Diacylglycerol kinase alpha (Homo sapiens, UniProt P23743). The series is described as follows: Inhibition of human DGK alpha using 1, 2-Dilauroyl-sn-glycerol as substrate by ADP-Glo assay. Background: ADP-Glo turns the ADP formed in a reaction into a luminescent signal.
The target of series [6] is Diacylglycerol kinase beta (Homo sapiens, UniProt Q9Y6T7). The series is described as follows: Inhibition of human DGK beta using 1, 2-Dilauroyl-sn-glycerol as substrate by ADP-Glo assay.
Series [7] deals with T2, Diacylglycerol kinase kappa (Homo sapiens, UniProt Q5KSL6).
T2 sequence (Q5KSL6 whole entry): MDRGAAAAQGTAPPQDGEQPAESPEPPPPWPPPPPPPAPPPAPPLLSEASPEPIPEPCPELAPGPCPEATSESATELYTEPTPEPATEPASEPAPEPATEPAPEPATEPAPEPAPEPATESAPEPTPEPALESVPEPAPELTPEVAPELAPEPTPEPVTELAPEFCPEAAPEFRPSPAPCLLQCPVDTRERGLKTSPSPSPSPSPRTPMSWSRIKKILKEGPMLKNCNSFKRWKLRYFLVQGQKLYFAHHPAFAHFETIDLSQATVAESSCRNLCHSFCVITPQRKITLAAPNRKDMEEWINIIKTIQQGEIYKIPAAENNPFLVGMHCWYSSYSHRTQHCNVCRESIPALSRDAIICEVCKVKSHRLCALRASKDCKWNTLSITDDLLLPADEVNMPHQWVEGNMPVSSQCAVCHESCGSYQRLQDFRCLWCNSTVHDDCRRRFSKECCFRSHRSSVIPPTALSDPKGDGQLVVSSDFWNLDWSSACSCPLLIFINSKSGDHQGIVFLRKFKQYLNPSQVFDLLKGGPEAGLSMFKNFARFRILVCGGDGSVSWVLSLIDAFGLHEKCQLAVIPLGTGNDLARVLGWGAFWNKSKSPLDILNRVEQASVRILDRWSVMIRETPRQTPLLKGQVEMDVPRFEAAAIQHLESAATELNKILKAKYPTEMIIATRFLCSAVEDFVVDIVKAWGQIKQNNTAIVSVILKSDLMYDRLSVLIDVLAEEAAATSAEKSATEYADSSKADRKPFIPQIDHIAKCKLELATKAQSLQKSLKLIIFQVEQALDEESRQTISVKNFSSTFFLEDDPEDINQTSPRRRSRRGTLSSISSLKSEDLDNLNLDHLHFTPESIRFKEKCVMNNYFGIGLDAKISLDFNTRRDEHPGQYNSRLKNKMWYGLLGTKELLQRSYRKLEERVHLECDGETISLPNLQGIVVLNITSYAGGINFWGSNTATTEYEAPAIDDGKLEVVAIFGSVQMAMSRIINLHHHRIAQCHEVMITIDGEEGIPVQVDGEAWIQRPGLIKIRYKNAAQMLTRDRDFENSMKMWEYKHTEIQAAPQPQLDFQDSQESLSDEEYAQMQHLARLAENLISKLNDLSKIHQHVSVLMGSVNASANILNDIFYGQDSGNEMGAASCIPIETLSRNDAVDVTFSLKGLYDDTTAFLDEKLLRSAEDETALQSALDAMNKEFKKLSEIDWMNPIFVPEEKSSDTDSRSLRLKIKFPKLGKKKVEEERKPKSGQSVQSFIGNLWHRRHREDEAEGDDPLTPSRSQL
The series is described as follows: Inhibition of human DGK kappa using 1, 2-Dilauroyl-sn-glycerol as substrate by ADP-Glo kinase assay.

A short description of series [8]: Inhibition of DGK in human whole blood cell assessed as increase in IFNgamma level incubated for 1 hr followed by anti-human CD3/ antiCD28 mAB stimulation and measure after 24 hrs by AlphaLISA assay. The series is classed as tissue-based.
Series [9] concerns the target Diacylglycerol kinase zeta (Homo sapiens, UniProt Q13574). The series is described as follows: Inhibition of human DGK zeta using 1, 2-Dilauroyl-sn-glycerol as substrate by ADP-Glo kinase assay.
Series [10] deals with Diacylglycerol kinase iota (Homo sapiens, UniProt O75912). The series is described as follows: Inhibition of human DGK iota using 1, 2-Dilauroyl-sn-glycerol as substrate by ADP-Glo kinase assay.
Diacylglycerol kinase iota, sequence (O75912 whole entry): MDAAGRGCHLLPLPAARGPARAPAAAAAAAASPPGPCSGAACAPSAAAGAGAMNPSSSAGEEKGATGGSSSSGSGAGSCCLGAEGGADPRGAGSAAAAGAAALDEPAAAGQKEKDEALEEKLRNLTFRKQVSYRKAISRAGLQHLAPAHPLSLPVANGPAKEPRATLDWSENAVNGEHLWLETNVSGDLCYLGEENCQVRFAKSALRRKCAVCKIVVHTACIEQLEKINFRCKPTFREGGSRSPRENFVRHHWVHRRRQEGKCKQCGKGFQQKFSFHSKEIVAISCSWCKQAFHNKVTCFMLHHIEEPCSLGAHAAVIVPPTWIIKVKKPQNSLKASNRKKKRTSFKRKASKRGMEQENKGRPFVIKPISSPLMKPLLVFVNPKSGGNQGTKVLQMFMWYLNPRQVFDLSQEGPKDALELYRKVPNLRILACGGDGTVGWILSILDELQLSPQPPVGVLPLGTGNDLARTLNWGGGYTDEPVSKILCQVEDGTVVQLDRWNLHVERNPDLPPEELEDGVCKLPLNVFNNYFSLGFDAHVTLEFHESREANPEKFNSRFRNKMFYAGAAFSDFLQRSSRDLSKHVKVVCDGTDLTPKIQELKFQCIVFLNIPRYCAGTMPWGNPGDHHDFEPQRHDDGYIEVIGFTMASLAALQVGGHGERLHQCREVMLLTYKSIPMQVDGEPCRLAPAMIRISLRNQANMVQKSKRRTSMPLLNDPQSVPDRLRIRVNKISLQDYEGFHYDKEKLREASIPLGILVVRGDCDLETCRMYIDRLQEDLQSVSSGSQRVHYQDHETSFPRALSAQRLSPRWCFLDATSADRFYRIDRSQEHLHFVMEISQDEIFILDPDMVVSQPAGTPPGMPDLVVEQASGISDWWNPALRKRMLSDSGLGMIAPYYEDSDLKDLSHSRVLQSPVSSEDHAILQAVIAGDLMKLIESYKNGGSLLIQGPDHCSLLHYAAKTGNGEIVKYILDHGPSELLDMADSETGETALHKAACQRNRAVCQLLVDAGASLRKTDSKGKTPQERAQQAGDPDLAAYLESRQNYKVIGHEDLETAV
A short description of series [11]: Inhibition of DGK in human whole blood cell assessed as increase in pERK level incubated for 1 hr followed by anti-human CD3 stimulation and measure after 15 mins by AlphaLISA assay. The format is tissue-based.
In series [12] the target is Diacylglycerol kinase gamma (Homo sapiens, UniProt P49619). The series is described as follows: Inhibition of human DGK gamma using 1, 2-Dilauroyl-sn-glycerol as substrate by ADP-Glo assay.
Diacylglycerol kinase gamma, sequence (P49619 whole entry): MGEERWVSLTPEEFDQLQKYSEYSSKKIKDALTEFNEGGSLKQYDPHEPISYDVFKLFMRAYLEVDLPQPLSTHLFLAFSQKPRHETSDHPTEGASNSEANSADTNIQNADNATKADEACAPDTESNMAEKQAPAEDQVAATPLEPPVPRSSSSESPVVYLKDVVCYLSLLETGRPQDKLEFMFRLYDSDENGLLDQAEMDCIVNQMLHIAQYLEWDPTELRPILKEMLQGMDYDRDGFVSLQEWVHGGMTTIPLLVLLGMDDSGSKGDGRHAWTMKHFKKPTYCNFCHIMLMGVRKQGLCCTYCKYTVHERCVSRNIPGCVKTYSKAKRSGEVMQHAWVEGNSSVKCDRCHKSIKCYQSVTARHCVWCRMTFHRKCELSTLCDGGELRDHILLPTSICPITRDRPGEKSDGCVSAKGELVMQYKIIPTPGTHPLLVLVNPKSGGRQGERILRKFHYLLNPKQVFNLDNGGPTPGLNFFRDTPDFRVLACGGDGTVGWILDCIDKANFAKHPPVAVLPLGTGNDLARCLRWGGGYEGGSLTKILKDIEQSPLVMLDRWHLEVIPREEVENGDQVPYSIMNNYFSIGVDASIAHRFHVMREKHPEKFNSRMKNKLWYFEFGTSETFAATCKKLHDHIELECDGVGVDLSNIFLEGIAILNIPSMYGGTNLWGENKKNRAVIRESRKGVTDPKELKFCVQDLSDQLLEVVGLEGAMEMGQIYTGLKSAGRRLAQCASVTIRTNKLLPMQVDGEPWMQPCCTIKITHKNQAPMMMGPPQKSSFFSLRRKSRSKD
The nature of series [13]: Induction of proliferation of human CD8-positive T cell measured after 24 hrs by Cell titer glo assay.
Series [14] concerns the target T1, Diacylglycerol kinase alpha. The series is described as follows: Inhibition of DGK alpha (unknown origin).

Diacylglycerol kinase zeta, sequence (Q13574 whole entry): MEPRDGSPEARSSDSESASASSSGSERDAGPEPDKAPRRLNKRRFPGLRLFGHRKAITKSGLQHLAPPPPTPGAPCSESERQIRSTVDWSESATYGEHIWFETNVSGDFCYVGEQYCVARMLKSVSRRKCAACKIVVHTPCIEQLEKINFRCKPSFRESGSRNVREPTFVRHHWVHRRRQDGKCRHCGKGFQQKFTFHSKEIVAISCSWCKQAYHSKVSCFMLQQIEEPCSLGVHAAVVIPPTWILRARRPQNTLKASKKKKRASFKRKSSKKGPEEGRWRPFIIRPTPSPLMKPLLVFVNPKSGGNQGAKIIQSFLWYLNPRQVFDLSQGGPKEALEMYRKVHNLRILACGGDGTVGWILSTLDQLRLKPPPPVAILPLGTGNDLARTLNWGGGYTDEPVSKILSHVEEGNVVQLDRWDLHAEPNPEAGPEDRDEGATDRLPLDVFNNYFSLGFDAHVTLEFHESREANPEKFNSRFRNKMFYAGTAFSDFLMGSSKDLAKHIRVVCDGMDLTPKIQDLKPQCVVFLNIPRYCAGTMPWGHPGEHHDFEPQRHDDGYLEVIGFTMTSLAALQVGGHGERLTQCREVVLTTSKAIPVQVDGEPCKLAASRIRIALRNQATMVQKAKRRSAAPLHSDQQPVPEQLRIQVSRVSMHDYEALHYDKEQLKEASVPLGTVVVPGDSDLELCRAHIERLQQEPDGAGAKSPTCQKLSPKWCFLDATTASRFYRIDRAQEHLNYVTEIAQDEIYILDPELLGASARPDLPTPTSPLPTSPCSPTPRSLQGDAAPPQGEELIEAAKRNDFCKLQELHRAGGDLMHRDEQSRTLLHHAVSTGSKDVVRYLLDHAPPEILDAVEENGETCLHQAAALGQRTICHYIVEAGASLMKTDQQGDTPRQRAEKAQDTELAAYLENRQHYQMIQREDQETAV
T1 sequence (P23743 whole entry): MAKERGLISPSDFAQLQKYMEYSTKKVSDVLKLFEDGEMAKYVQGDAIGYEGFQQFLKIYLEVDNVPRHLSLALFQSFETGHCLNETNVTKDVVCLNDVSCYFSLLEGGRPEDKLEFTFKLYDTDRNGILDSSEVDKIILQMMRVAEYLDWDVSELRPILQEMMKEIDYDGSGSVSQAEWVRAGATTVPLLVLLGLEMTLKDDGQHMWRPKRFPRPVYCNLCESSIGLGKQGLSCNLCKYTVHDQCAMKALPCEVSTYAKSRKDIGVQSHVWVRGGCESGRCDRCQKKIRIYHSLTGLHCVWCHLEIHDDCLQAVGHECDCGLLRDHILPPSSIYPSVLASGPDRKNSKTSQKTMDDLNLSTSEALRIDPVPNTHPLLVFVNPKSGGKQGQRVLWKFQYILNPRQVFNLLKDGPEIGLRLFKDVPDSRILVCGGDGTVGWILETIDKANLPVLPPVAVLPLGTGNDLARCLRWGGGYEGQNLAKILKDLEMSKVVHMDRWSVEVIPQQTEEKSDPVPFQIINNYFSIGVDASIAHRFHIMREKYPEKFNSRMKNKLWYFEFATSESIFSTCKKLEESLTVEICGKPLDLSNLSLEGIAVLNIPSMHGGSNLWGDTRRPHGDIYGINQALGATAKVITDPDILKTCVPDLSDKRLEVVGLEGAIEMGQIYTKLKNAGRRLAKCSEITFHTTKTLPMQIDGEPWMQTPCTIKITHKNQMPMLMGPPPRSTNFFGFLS

As usually defined, the EC50 is the concentration giving half of the maximal effect. On to `CCOC(=O)c1c(N2CCN(C(c3ccccc3)c3ccccc3)CC2)c2ccccc2n(C)c1=O`, for which the Stability in [1] worked out at 49%; in series [3], 52%. In addition, the EC50 amounted to 4.1 µM in [2] and 20 µM in series [4].

Take `Cn1c(=O)c(C(=O)C(F)(F)F)c(N2CCN(C(c3ccccc3)c3ccccc3)CC2)c2ccccc21`: the Stability was 75% in [1] and 63% in [3]. Further, the values for the EC50 in series [2] and in series [4] were 7.1 µM and 5.8 µM, respectively.

With `Cn1c(=O)c([N+](=O)[O-])c(N2CCN(C(c3ccc(F)cc3)c3ccc(F)cc3)CC2)c2cc(F)ccc21`, the Stability is recorded as 89% in series [1] and 77% in series [3]. For the same molecule, the EC50 was determined as 0.34 µM in series [2] and 0.49 µM in series [4].

Usually IC50 stands for the concentration that inhibits the measured activity by half. Low values mean inhibition by little substance, high ones a need for much substance. As to `O=C1/C(=C/C=C/c2ccco2)SC(=S)N1NS(=O)(=O)c1ccccc1`, the IC50 in series [5] was 0.6 µM.

Regarding `Cn1c(=O)c([N+](=O)[O-])c(N2CCN(C(c3ccc(F)cc3)c3ccc(F)cc3)CC2)c2cccnc21`, the half-maximal effective concentration (EC50) stood at 7.7 µM in series [2] and 13 µM in series [4].

With `Cn1c(=O)c(C#N)c(N2CCN(C(c3ccc(F)cc3)c3ccc(F)cc3)CC2)c2cc(F)ccc21`, the Stability in [1] is given as 84%. The results for the EC50 in [2] and in series [4] were 0.61 µM and 1.1 µM, respectively.

For the molecule `Cn1c(=O)c([N+](=O)[O-])c(N2CCN(C(c3ccccc3)c3ccccc3)CC2)c2ccccc21`, the IC50 in series [6] is 2.5 µM; in [7], > 10 µM; in series [9], > 10 µM; in series [10] it was > 10 µM; in [12], 1.9 µM; in series [5] it was 0.015 µM. The Stability came out at 93% in series [1] and 82% in [3]. Further, the EC50 in series [2] is 3.2 µM; in [8], > 20 µM; in [11], > 20 µM; in [4] it was 2.4 µM.

For the molecule `CC(=O)c1c(N2CCN(C(c3ccccc3)c3ccccc3)CC2)c2ccccc2n(C)c1=O`, the EC50 is 8.5 µM in [2] and 13 µM in series [4].

In the case of `CCn1c(=O)c([N+](=O)[O-])c(N2CCN(C(c3ccc(F)cc3)c3ccc(F)cc3)CC2)c2ccccc21`, the EC50 in series [2] and in series [4] was > 100 µM in each case.

As to `O=c1c2ccccc2[nH]c(=S)n1CCN1CCC(=C(c2ccc(F)cc2)c2ccc(F)cc2)CC1` [DIACYLGLYCEROL KINASE INHIBITOR II], the 50% effective concentration (EC50) in series [13] and in series [8] was > 10 µM throughout. Moreover, the IC50 in [6] is > 10 µM; in series [9], > 10 µM; in series [10] it was > 10 µM; in series [12], 3.4 µM; in series [5], 4.3 µM.

For `CN(C)c1ccc2c(c1)c(N1CCN(C(c3ccc(F)cc3)c3ccc(F)cc3)CC1)c([N+](=O)[O-])c(=O)n2C`, the Stability was found to be 69% in [1] and 5% in series [3]. The 50% effective concentration (EC50) in series [2] turned out to be 0.67 µM; in series [4] it was 0.76 µM.

For `Cn1c(=O)c(C#N)c(N2CCN(C(c3ccc(F)cc3)c3ccc(F)cc3)CC2)c2nc(C#N)ccc21`, the Stability in series [1] worked out at 92%; in series [3] it was 80%. In addition, the EC50 was found to be 0.19 µM in series [2] and 0.067 µM in series [4].

As for `Cn1c(=O)c([N+](=O)[O-])c(N2CCN(CCc3ccccc3)CC2)c2ccccc21`, the figures for the Stability in series [1] and in series [3] were 28% and 6%, respectively. Also, the concentration for a half-maximal effect (EC50) in series [2] and in [4] was > 100 µM in each case.

For `Cn1c(=O)c([N+](=O)[O-])c(N2CCN(C(c3ccc(F)cc3)c3ccc(F)cc3)CC2)c2ncccc21`, the Stability stood at 92% in series [1] and 88% in [3]. Moreover, the figures for the EC50 in series [2] and in [4] were 0.29 µM and 0.31 µM, respectively. The half-maximal inhibitory concentration (IC50) is 2.7 µM in series [9], 1 µM in [10] and 0.053 µM in series [5].

With `Cn1c(=O)c(C(=O)O)c(N2CCN(C(c3ccccc3)c3ccccc3)CC2)c2ccccc21`, the EC50 in series [2] and in series [4] was > 100 µM each time.

Regarding `Cn1c(=O)c([N+](=O)[O-])c(N2CCN(C(c3ccc(F)cc3)c3ccc(F)cc3)CC2)c2ccc(F)cc21`, the concentration for a half-maximal effect (EC50) in [2] worked out at 2.6 µM; in series [4], 1.8 µM.

With `COc1ccc2c(c1)c(N1CCN(C(c3ccc(F)cc3)c3ccc(F)cc3)CC1)c([N+](=O)[O-])c(=O)n2C`, the Stability in series [1] was 79%; in series [3], 8%. Besides, the results for the EC50 in [2] and in [4] were 0.63 µM and 1.2 µM, respectively.

For `Cn1c(=O)c([N+](=O)[O-])c(N2CCN(C(c3ccc(F)cc3)c3ccc(F)cc3)CC2)c2ccccc21`, the results for the Stability in series [1] and in [3] were 86% and 84%, respectively. The EC50 in series [2] stood at 1.5 µM; in series [4] it was 3.7 µM.

In the case of `O=c1[nH]c2ccccc2c(N2CCN(C(c3ccc(F)cc3)c3ccc(F)cc3)CC2)c1[N+](=O)[O-]`, the EC50 is > 33 µM in [2] and > 100 µM in series [4].

As for `Cn1c(=O)c(C#N)c(N2CCN(C(c3ccccc3)c3ccccc3)CC2)c2ccccc21`, the EC50 in series [2] amounted to 1.37 µM; in series [4], 1.24 µM.

As for `Cn1c(=O)c([N+](=O)[O-])c(N2CCN(C(c3ccc(F)cc3)c3ccc(F)cc3)CC2)c2cc(C#N)ccc21`, the Stability in series [1] is on record as 97%; in series [3] it was 93%. Also, the EC50 in series [2] worked out at 0.13 µM; in [4] it was 0.12 µM. Besides, the IC50 in series [9] came to 10 µM; in series [10] it was 6.2 µM; in series [5] it was 0.034 µM.

Take `CCCN1CCN(c2c([N+](=O)[O-])c(=O)n(C)c3ccccc23)CC1`: the EC50 in [2] and in [4] was > 100 µM in each case.

With `Cn1c(=O)cc(N2CCN(C(c3ccccc3)c3ccccc3)CC2)c2ccccc21`, the results for the Stability in series [1] and in series [3] were 93% and 63%, respectively. Further, the results for the EC50 in series [2] and in [4] were > 5 µM and > 16 µM, respectively.

As for `COc1ccc2c(n1)c(N1CCN(C(c3ccc(F)cc3)c3ccc(F)cc3)CC1)c(C#N)c(=O)n2C`, the values for the Stability in series [1] and in series [3] were 100% and 43%, respectively. Besides, the EC50 in series [2] turned out to be 0.39 µM; in [4], 0.4 µM.

As for `Cn1c(=O)c([N+](=O)[O-])c(N2CCN(Cc3ccccc3)CC2)c2cc(F)ccc21`, the results for the Stability in [1] and in [3] were 43% and 8%, respectively. Also, the half-maximal effective concentration (EC50) in series [2] is 1.5 µM; in series [4], 2.5 µM.

As for `CC(c1ccccc1)N1CCN(c2c([N+](=O)[O-])c(=O)n(C)c3ccccc23)CC1` (stereo not given), the results for the Stability in series [1] and in series [3] were 25% and 4%, respectively. In addition, the EC50 in [2] turned out to be 6.39 µM; in [4], 9.28 µM.

Take `Cc1nc2sccn2c(=O)c1CCN1CCC(=C(c2ccccc2)c2ccc(F)cc2)CC1`: inhibition in [14] was half-maximal at 25.4 µM (IC50).

Consider `Cn1c(=O)c([N+](=O)[O-])c(N2CCN(C(c3ccc(F)cc3)c3ccc(F)cc3)CC2)c2cnccc21`, for which the values for the Stability in series [1] and in series [3] were 100% and 63%, respectively. Further, the half-maximal effective concentration (EC50) in [2] is 0.56 µM; in [4] it was 0.84 µM.

For `C#CCCC1(CCCN2CCN(c3c([N+](=O)[O-])c(=O)n(C)c4ccc(Br)nc34)CC2)N=N1`, the figures for the Stability in series [1] and in series [3] were 10% and < 1%, respectively. Also, the EC50 was determined as 0.42 µM in series [2] and 0.37 µM in [4].
